± gives the uncertainty stated by the source.
Experiment: xn = mol fraction of the nth substance listed

CCCCC[n+]1ccn(C)c1.C[C@H](N)C(=O)[O-] + O
viscosity [mPa·s], 100.3 kPa
Conditions	288.15 K	293.15 K	298.15 K	303.15 K	308.15 K	313.15 K	318.15 K	323.15 K	328.15 K
x1 = 0.0003008	1.156 ± 0.016	1.015 ± 0.016	0.9 ± 0.015	0.81 ± 0.015	0.725 ± 0.015	0.661 ± 0.015	0.604 ± 0.015	0.554 ± 0.015	0.511 ± 0.015
x1 = 0.0003999	1.162 ± 0.016	1.022 ± 0.016	0.907 ± 0.015	0.813 ± 0.015	0.732 ± 0.015	0.664 ± 0.015	0.606 ± 0.015	0.556 ± 0.015	0.513 ± 0.015
x1 = 0.0005025	1.167 ± 0.016	1.027 ± 0.016	0.911 ± 0.015	0.817 ± 0.015	0.735 ± 0.015	0.666 ± 0.015	0.608 ± 0.015	0.559 ± 0.015	0.515 ± 0.015
x1 = 0.001012	1.203 ± 0.016	1.057 ± 0.016	0.937 ± 0.015	0.838 ± 0.015	0.755 ± 0.015	0.684 ± 0.015	0.626 ± 0.015	0.573 ± 0.015	0.529 ± 0.015
x1 = 0.00302	1.361 ± 0.016	1.197 ± 0.016	1.057 ± 0.016	0.939 ± 0.015	0.841 ± 0.015	0.759 ± 0.015	0.688 ± 0.015	0.629 ± 0.015	–
x1 = 0.005081	1.512 ± 0.017	1.325 ± 0.016	1.163 ± 0.016	1.027 ± 0.016	0.916 ± 0.015	0.827 ± 0.015	0.749 ± 0.015	0.685 ± 0.015	–
x1 = 0.006922	1.657 ± 0.017	1.445 ± 0.017	1.272 ± 0.016	1.118 ± 0.016	0.997 ± 0.016	0.893 ± 0.015	0.805 ± 0.015	0.736 ± 0.015	–
x1 = 0.009062	1.82 ± 0.017	1.574 ± 0.017	1.367 ± 0.016	1.208 ± 0.016	1.07 ± 0.016	0.958 ± 0.015	0.867 ± 0.015	0.781 ± 0.015	–
x1 = 0.01107	1.956 ± 0.018	1.696 ± 0.017	1.476 ± 0.017	1.3 ± 0.016	1.146 ± 0.016	1.026 ± 0.016	0.928 ± 0.015	0.831 ± 0.015	–
x1 = 0.01292	2.098 ± 0.018	1.817 ± 0.018	1.578 ± 0.017	1.378 ± 0.016	1.223 ± 0.016	1.087 ± 0.016	0.985 ± 0.016	0.887 ± 0.015	–
x1 = 0.0148	2.243 ± 0.019	1.938 ± 0.018	1.674 ± 0.017	1.467 ± 0.017	1.291 ± 0.016	1.155 ± 0.016	1.035 ± 0.016	0.931 ± 0.015	–
x1 = 0.01797	2.456 ± 0.02	2.105 ± 0.018	1.823 ± 0.018	1.596 ± 0.017	1.392 ± 0.016	1.252 ± 0.016	1.114 ± 0.016	0.999 ± 0.016	–

CC[n+]1ccccc1.N#C[N-]C#N + CCCO
100 kPa
Conditions	viscosity [mPa·s]
288.15 K, x2 = 0.1095	20.5 ± 2.1
288.15 K, x2 = 0.1947	17.6 ± 1.8
288.15 K, x2 = 0.8012	4.59 ± 0.46
293.15 K, x2 = 0	22.1 ± 2.2
293.15 K, x2 = 0.3011	13.3 ± 1.3
293.15 K, x2 = 0.8012	4.05 ± 0.41
298.15 K, x2 = 0.5008	7.45 ± 0.75
298.15 K, x2 = 0.9	2.77 ± 0.28
303.15 K, x2 = 0.4029	8.04 ± 0.81
303.15 K, x2 = 0.702	4.19 ± 0.42
308.15 K, x2 = 0.1947	9.87 ± 0.99
308.15 K, x2 = 0.5008	5.9 ± 0.59
308.15 K, x2 = 0.8012	2.92 ± 0.29
308.15 K, x2 = 0.9	2.24 ± 0.22
313.15 K, x2 = 0.1947	8.76 ± 0.88
313.15 K, x2 = 0.5008	5.31 ± 0.53
318.15 K, x2 = 0	11 ± 1.1
318.15 K, x2 = 0.5008	4.8 ± 0.48
318.15 K, x2 = 0.702	3.12 ± 0.31
318.15 K, x2 = 0.9	1.84 ± 0.18

CCC(C)O (configuration not stated) + CCCCCC[n+]1ccn(C)c1.O=[N+]([O-])[O-]
100 kPa, x2 = 0
Conditions	viscosity [mPa·s]
293.15 K	3.67 ± 0.18
298.15 K	3.04 ± 0.15
303.15 K	2.54 ± 0.13
308.15 K	2.13 ± 0.11
313.15 K	1.8 ± 0.09
318.15 K	1.54 ± 0.08
323.15 K	1.33 ± 0.07
